Measurements: patent US9303045B2, “5-HT3 receptor antagonists” (Takeda Pharmaceutical Company Limited, priority 2013, dated 2016)
Counter-ions that a name gives are not always drawn.

Target: 5HT3a receptor expressed in HEK-293T cells (Homo sapiens (Human), UniProt P46098)
Assay: Inhibition of Ca flux activity of 5HT3 in vitro assay
Type: cell-based
Details: calcium flux, 5HT 216 nM, approximate values
Procedure: Inhibition of Ca Flux Activity of 5HT3 In Vitro Assay
The 5HT3 antagonist activity of the compounds of the invention was determined by measuring the ability of the compounds to inhibit the calcium flux activity of […] receptor expressed in HEK-293T cells. HEK-293T cells were transfected with the 5HT3a expression construct using Xtreme Gene 9 (Roche) in 150 mm tissue culture treated plates and incubated for 24 hours at 37° C. Cells were then split and plated at a density of 60K cells/well in poly-lysine coated, black 96-well plates with clear bottoms (BD BioSciences) and incubated overnight at 37° C. Growth media was removed and cells loaded with 200 uL calcium indicator dye in HBSS containing 20 mM HEPES (Calcium 5 Assay kit, Molecular Devices) and incubated at 37° C. for 1 hour. While cells were incubating, the 10× antagonist and agonist/antagonist addition plates were made. For 10× antagonist plate: half log serial dilutions (final concentrations range from 10^−7 through 10^−10 with the bottom well a negative, no ligand control) were made from test compounds in DMSO at a 1000× concentration and then diluted to 10× in HBSS/20 mM HEPES. For addition plate: 5HT was diluted to 100× in HBSS/20 mM HEPES (final concentration in the assay—216 nM) and 15 uL was added to each well of the addition plate, 15 uL of 10× compound was also added to the addition plate, and finally 120 uL of HBSS/20 mM HEPES (for a total of 150 uL). Cells were then removed from the incubator and equilibrated to room temperature for 10 minutes, then 22.5 uL of 10× test compounds were added in triplicate to the plates and incubated at room temperature for 10 minutes (Tropisetron was used as a positive control in every assay). Test plate and addition plate were loaded into the FlexStation III (Molecular Devices), and using the fluidics, 22.5 uL compound additions were made (at t=˜17 seconds), and fluorescence was measured for 90 seconds, reading every 2.2 seconds. Data sets were analyzed as max minus min using Software Max Pro (Molecular Devices). IC50 curves were generated using non-linear regression in GraphPad Prism.

Sequence of 5HT3a receptor expressed in HEK-293T cells (P46098 24-478): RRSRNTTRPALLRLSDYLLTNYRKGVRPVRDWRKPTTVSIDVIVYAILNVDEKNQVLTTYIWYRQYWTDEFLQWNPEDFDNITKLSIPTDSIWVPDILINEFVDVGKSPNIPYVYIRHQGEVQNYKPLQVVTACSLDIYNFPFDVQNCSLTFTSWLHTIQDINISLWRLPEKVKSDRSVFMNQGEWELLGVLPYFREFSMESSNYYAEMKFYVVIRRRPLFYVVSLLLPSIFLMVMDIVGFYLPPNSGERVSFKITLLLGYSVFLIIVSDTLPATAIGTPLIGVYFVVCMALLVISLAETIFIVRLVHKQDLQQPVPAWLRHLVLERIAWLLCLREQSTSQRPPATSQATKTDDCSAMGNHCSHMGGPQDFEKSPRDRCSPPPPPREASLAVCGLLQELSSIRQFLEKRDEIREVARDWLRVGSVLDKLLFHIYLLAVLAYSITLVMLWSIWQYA

Row | Compound | IC50 [nM]
1 | N#Cc1ccc(-n2cc(C(=O)O[C@H]3C[C@H]4COC[C@@H](C3)N4)c3ccccc32)cc1 [Example 180, (1R,5S,7s)-3-oxa-9-azabicyclo[3.3.1]nonan-7-yl 1-(4-cyanophenyl)-1H-indole-3-carboxylate, 2,2,2-trifluoroacetic acid salt] | 5.91
2 | CN1[C@@H]2CCC[C@H]1CC(OC(=O)c1cn(CCF)c3ccccc13)C2 (stereo partly drawn) [Example 87, (1R,3R,5S)-9-methyl-9-azabicyclo[3.3.1]nonan-3-yl 1-(2-fluoroethyl)-1H-indole-3-carboxylate, 2,2,2-trifluoroacetate] | 0.18
3 | CN1C2COCC1CC(NC(=O)c1cn(C(C)(C)C(F)(F)F)c3ncccc13)C2 [Example 69, N-((1R,5S,7S)-9-methyl-3-oxa-9-azabicyclo[3.3.1]nonan-7-yl)-1-(1,1,1-trifluoro-2-methylpropan-2-yl)-1H-pyrrolo[2,3-b]pyridine-3-carboxamide, 2,2,2-trifluoroacetate] | 1.06
4 | CN1C2CCC1CC(OC(=O)c1cn([C@H]3CCOC3)c3ccccc13)C2 (stereo partly drawn) [Example 96, (1R,3R,5S)-8-methyl-8-azabicyclo[3.2.1]octan-3-yl 1-((S)-tetrahydrofuran-3-yl)-1H-indole-3-carboxylate, 2,2,2-trifluoroacetate] | 0.83
5 | CN1[C@@H]2COC[C@H]1CC(NC(=O)c1nn(CC(F)(F)F)c3ccccc13)C2 (stereo partly drawn) [Example 126, N-((1R,5S,7S)-9-methyl-d3-3-oxa-9-azabicyclo[3.3.1]nonan-7-yl)-1-(2,2,2-trifluoroethyl)-1H-indazole-3-carboxamide, 2,2,2-trifluoroacetate] | 0.86
6 | CN1[C@@H]2COC[C@H]1C[C@@H](OC(=O)c1cn(CC(F)F)c3ncccc13)C2 [Example 48, (1R,5S,7S)-9-methyl-3-oxa-9-azabicyclo[3.3.1]nonan-7-yl 1-(2,2-difluoroethyl)-1H-pyrrolo[2,3-b]pyridine-3-carboxylate] | 0.84
7 | CN1C2COCC1CC(NC(=O)c1cn(CCF)c3ccccc13)C2 [Example 79, 1-(2-fluoroethyl)-N-((1R,5S,7S)-9-methyl-3-oxa-9-azabicyclo-[3.3.1]nonan-7-yl)-1H-indole-3-carboxamide, 2,2,2-trifluoroacetate] | 0.41
8 | (1R,5S,7s)-3-oxa-9-azabicyclo[3.3.1]nonan-7-yl 1-(2-cyanophenyl)-1H-indole-3-carboxylate, 2,2,2-trifluoroacetic acid salt [Example 28] | 1.08
9 | (1R,5S,7S)-9-methyl-3-oxa-9-azabicyclo[3.3.1]nonan-7-yl 1-(2,2-difluoroethyl)-1H-pyrrolo[2,3-b]pyridine-3-carboxylate 2,2,2-trifluoroacetate [Example 14] | 3.71
10 | O=C(OC1CC2COCC(C1)N2)c1cn(CC(F)F)c2ncccc12 [Example 101, (1R,5S,7S)-3-oxa-9-azabicyclo[3.3.1]nonan-7-yl 1-(2,2-difluoroethyl)-1H-pyrrolo[2,3-b]pyridine-3-carboxylate, 2,2,2-trifluoroacetate] | > 1000
11 | CN1C2COCC1CC(OC(=O)c1cn(CCF)c3ccc(C#N)cc13)C2 [Example 160, (1R,5S,7s)-9-methyl-3-oxa-9-azabicyclo[3.3.1]nonan-7-yl 5-cyano-1-(2-fluoroethyl)-1H-indole-3-carboxylate, 2,2,2-trifluoroacetic acid salt] | 0.746
12 | CN1C2COCC1CC(NC(=O)c1cn(-c3nccs3)c3ncc(F)cc13)C2 [Example 162, 5-fluoro-N-((1R,5S,7s)-9-methyl-3-oxa-9-azabicyclo[3.3.1]nonan-7-yl)-1-(thiazol-2-yl)-1H-pyrrolo[2,3-b]pyridine-3-carboxamide, 2,2,2-trifluoroacetic acid salt] | 1.81
13 | CN1[C@@H]2COC[C@H]1CC(NC(=O)c1cn(CC(F)F)c3ncc(F)cc13)C2 (stereo partly drawn) [Example 109, 1(2,2-difluoroethyl)-5-fluoro-N-((1R,5S,7S)-9-methyl-d3-3-oxa-9-azabicyclo[3.3.1]nonan-7-yl)-1H-pyrrolo[2,3-b]pyridine-3-carboxamide] | 1.11
14 | CN1[C@@H]2CC[C@H]1CC(OC(=O)c1c(Cl)n(CC(F)(F)F)c3ccccc13)C2 (stereo partly drawn) [Example 44, (1R,3R,5S)-8-methyl-8-azabicyclo[3.2.1]octan-3-yl 2-chloro-1-(2,2,2-trifluoroethyl)-1H-indole-3-carboxylate, 2,2,2-trifluoroacetate] | 1.87
15 | CN1[C@@H]2CCC[C@H]1CC(NC(=O)c1cn(S(C)(=O)=O)c3ccc(F)cc13)C2 (stereo partly drawn) [Example 100, 5-fluoro-N-((1R,3R,5S)-9-methyl-9-azabicyclo[3.3.1]nonan-3-yl)-1-(methylsulfonyl)-1H-indole-3-carboxamide, 2,2,2-trifluoroacetate] | 12.8
16 | CC(C)S(=O)(=O)n1cc(C(=O)O[C@H]2C[C@H]3COC[C@@H](C2)N3)c2ccccc21 | 1.8
17 | O=C(OC1CC2COCC(C1)N2)c1cn(CC(F)(F)F)c2ccc(F)cc12 [Example 59, (1R,5S,7S)-3-oxa-9-azabicyclo[3.3.1]nonan-7-yl 5-fluoro-1-(2,2,2-trifluoroethyl)-1H-indole-3-carboxylate, 2,2,2-trifluoroacetate] | 2.36
18 | CN1[C@@H]2COC[C@H]1CC(OC(=O)c1cn(S(C)(=O)=O)c3ccc(F)cc13)C2 (stereo partly drawn) [Example 99, (1R,5S,7S)-9-methyl-3-oxa-9-azabicyclo[3.3.1]nonan-7-yl 5-fluoro-1-(methylsulfonyl)-1H-indole-3-carboxylate, 2,2,2-trifluoroacetate] | 0.29
19 | CC(C)S(=O)(=O)n1cc(C(=O)O[C@H]2C[C@H]3COC[C@@H](C2)N3)c2ccccc21 [Example 131, (1R,5S,7S)-3-oxa-9-azabicyclo[3.3.1]nonan-7-yl 1-(isopropylsulfonyl)-1H-indole-3-carboxylate, 2,2,2-trifluoroacetate] | 1.93
20 | O=C(OC1C[C@H]2CC[C@@H](C1)N2)c1cn(CC(F)F)c2ccccc12 (stereo partly drawn) [Example 45, (1R,3R,5S)-8-azabicyclo[3.2.1]octan-3-yl 1-(2,2-difluoroethyl)-1H-indole-3-carboxylate, 2,2,2-trifluoroacetate] | 3.09
21 | CC(C)S(=O)(=O)n1cc(C(=O)NC2C[C@H]3COC[C@@H](C2)N3C)c2ccccc21 (some centres unmarked) | 0.57
22 | O=C(OC1CC2COCC(C1)N2)c1cn(-c2cnsc2)c2ccccc12 [Example 143, (1R,5S,7s)-3-oxa-9-azabicyclo[3.3.1]nonan-7-yl 1-(isothiazol-4-yl)-1H-indole-3-carboxylate, 2,2,2-trifluoroacetic acid salt] | 0.415
23 | CN1[C@@H]2COC[C@H]1CC(NC(=O)c1cn(S(C)(=O)=O)c3ccc(F)cc13)C2 (stereo partly drawn) [Example 36, 5-fluoro-N-((1R,5S,7S)-9-methyl-3-oxa-9-azabicyclo[3.3.1]nonan-7-yl)-1-(methylsulfonyl)-1H-indole-3-carboxylate, 2,2,2-trifluoroacetate] | 0.5
24 | CN1C2COCC1CC(NC(=O)c1cn(-c3cncs3)c3ncc(F)cc13)C2 [Example 164, 5-fluoro-N-((1R,5S,7s)-9-methyl-3-oxa-9-azabicyclo[3.3.1]nonan-7-yl)-1-(thiazol-5-yl)-1H-pyrrolo[2,3-b]pyridine-3-carboxamide, 2,2,2-trifluoroacetic acid salt] | 1.18
25 | N#Cc1cccc(-n2cc(C(=O)OC3CC4COCC(C3)N4)c3ccccc32)c1 [Example 172, (1R,5S,7s)-3-oxa-9-azabicyclo[3.3.1]nonan-7-yl 1-(3-cyanophenyl)-1H-indole-3-carboxylate, 2,2,2-trifluoroacetic acid salt] | 2.89
26 | CN1C2COCC1CC(NC(=O)c1nn(-c3cncs3)c3ccccc13)C2 [Example 165, N-((1R,5S,7s)-9-methyl-3-oxa-9-azabicyclo[3.3.1]nonan-7-yl)-1-(thiazol-5-yl)-1H-indazole-3-carboxamide, 2,2,2-trifluoroacetic acid salt] | 1.53
27 | CN1[C@@H]2COC[C@H]1CC(OC(=O)c1cn(S(C)(=O)=O)c3ccccc13)C2 (stereo partly drawn) [Example 47, (1R,5S,7S)-9-methyl-3-oxa-9-azabicyclo[3.3.1]nonan-7-yl 1-(methylsulfonyl)-1H-indole-3-carboxylate, 2,2,2-trifluoroacetate] | 0.33
28 | CN1C2COCC1CC(NC(=O)c1cn(-c3ccccc3)c3ccccc13)C2 [Example 174, N-((1R,5S,7s)-9-methyl-3-oxa-9-azabicyclo[3.3.1]nonan-7-yl)-1-phenyl-1H-indole-3-carboxamide, 2,2,2-trifluoroacetic acid salt] | 2.06
29 | CN1[C@@H]2COC[C@H]1CC(NC(=O)c1nn(CC(F)F)c3ncccc13)C2 (stereo partly drawn) [Example 66, 1-(2,2-difluoroethyl)-N-((1R,5S,7S)-9-methyl-3-oxa-9-azabicyclo[3.3.1]nonan-7-yl)-1H-pyrazolo[3,4-b]pyridine-3-carboxamide, 2,2,2-trifluoroacetate] | 1.07
